Results published in patent US7892354B2, “Process for the parallel detection of crystalline forms of molecular solids” (Solvias AG, priority 2003, dated 2011).
Where a name gives a salt, the structure may show the parent alone.

Assays:
[1] = Parallel phase equilibrium experiments in suspensions of 32 solvents and solvent mixtures, Raman spectra grouped into classes; type: physicochemical; details: 64 experiments, 32 solvents/solvent mixtures; for number of different classes of Raman spectra (ideally corresponding to different solid forms of sertraline HCl): 48 hours shaking, temperature cycled between 18° C. and 28° C., similarity factor 0.5; for occurrence of form II among the solid forms obtained: 48 hours, 18° C. to 28° C., verified against reference spectra, HCl
Method: A reference experiment with the stable form I as starting material is designed in such a way that 64 experiments are carried out for establishing the phase equilibrium in suspensions of 32 different solvents and solvent mixtures. For this purpose, 32 of the vessels in a 96-well quartz microtitre plate are each filled with about 5 mg of sertraline HCl form 1, and 100 microlitres of the corresponding solvent are then introduced into each vessel in accordance with the plan below, and the plate is closed with seals.
The microtitre plate is then shaken on a mechanical shaker (Eppendorf, Thermomixer Comfort) for 48 hours, the temperature of the mechanical shaker being changed cydically between 18° C. and 28° C. A cycle corresponds to one hour. The shaking frequency is 500 per minute. After a time of 48 hours for establishing equilibrium, the microtitre plate is removed from the mechanical shaker and the solid in each of the occupied vessels is investigated directly in the suspension using a Raman microscope (Renishaw Raman microscope system RM 1000). One or two Raman spectra are recorded in each vessel. The solvents in each vessel are then evaporated with the aid of a seal system having flow-through channels according to WO 03/026797 under nitrogen, a flow rate of about 0.03 litre/hour being established. Altogether, 80 Raman spectra are recorded in 64 experiments (32 directly from the suspension and 32 from the dried suspension).
The measured Raman spectra are divided into different classes of spectra on the basis of their differences. A separate evaluation programme which carries out an automatic comparison of measured spectra on the basis of the wave numbers of emission maxima in the Raman spectrum and generates a classification is used for this purpose. A distinguishing criterion is a similarity factor which is determined by visual assessment of selected, individual spectra.
Similarly to the reference example described above, 64 experiments are carried out in 32 different solvents and solvent mixtures in 32 vessels of a 96-well microtitre plate. For this purpose, each of the 32 vessels is occupied with 3 mg of the amorphous form. 100 microlitres of solvent according to the plan given in the comparative example are then filled into each of the 32 vessels, and the plate is closed with seals. The microtitre plate is then shaken on a mechanical shaker (Eppendorf, Thermomixer Comfort), the temperature of the mechanical shaker being changed cyclically between 18° C. and 28° C. A cycle corresponds to one hour, and the shaking frequency is 500 per minute. After a time of 48 hours for establishing the equilibrium, the microtitre plate is removed from the mechanical shaker and the solid in each of the occupied vessels is investigated directly in the suspension using a Raman microscope. One or two Raman spectra are recorded in each vessel. The solvents in each vessel are then evaporated with the aid of a seal system having flow-through channels according to WO 03/026797 under nitrogen, a flow rate of about 0.03 litre per hour being established. Altogether, 92 Raman spectra are recorded in 64 experiments (32 directly from the suspension and 32 from the dried suspension).

[2] = Morisette et al., Advanced Drug Delivery Reviews 56 (2004) 275-300; cited from earlier work

SMILES	number of different classes of Raman spectra (ideally corresponding to different solid forms of sertraline HCl) [1]	occurrence of form II among the solid forms obtained [1]	number of different crystal forms mentioned in the literature [2]
CN[C@H]1CC[C@@H](c2ccc(Cl)c(Cl)c2)c2ccccc21 [amorphous form of sertraline HCl, sertraline HCl]	25	both the thermodynamically stable form I and the important form II are contained in these classes	–
CN[C@H]1CC[C@@H](c2ccc(Cl)c(Cl)c2)c2ccccc21 [isopropanol solvate of sertraline HCl, sertraline HCl]	16	–	–
CN[C@H]1CC[C@@H](c2ccc(Cl)c(Cl)c2)c2ccccc21 [sertraline HCl form I, sertraline HCl]	11	the important form II did not form	–
CN[C@H]1CC[C@@H](c2ccc(Cl)c(Cl)c2)c2ccccc21 [sertraline HCl]	–	–	about 27
